The values that follow come from patent publication EP4592286A1, “MACROCYCLIC NITROGEN-CONTAINING CROWN ETHER COMPOUND AND USE THEREOF AS PROTEIN KINASE INHIBITOR” (Artivila Biopharma, priority 2022, dated 2024).

For one experiment, the target named is T1, JAK3 (Mus musculus, UniProt Q62137).
T1 construct: endogenous in cells; host or cells: CTLL-2
T1 sequence (Q62137 1-1100): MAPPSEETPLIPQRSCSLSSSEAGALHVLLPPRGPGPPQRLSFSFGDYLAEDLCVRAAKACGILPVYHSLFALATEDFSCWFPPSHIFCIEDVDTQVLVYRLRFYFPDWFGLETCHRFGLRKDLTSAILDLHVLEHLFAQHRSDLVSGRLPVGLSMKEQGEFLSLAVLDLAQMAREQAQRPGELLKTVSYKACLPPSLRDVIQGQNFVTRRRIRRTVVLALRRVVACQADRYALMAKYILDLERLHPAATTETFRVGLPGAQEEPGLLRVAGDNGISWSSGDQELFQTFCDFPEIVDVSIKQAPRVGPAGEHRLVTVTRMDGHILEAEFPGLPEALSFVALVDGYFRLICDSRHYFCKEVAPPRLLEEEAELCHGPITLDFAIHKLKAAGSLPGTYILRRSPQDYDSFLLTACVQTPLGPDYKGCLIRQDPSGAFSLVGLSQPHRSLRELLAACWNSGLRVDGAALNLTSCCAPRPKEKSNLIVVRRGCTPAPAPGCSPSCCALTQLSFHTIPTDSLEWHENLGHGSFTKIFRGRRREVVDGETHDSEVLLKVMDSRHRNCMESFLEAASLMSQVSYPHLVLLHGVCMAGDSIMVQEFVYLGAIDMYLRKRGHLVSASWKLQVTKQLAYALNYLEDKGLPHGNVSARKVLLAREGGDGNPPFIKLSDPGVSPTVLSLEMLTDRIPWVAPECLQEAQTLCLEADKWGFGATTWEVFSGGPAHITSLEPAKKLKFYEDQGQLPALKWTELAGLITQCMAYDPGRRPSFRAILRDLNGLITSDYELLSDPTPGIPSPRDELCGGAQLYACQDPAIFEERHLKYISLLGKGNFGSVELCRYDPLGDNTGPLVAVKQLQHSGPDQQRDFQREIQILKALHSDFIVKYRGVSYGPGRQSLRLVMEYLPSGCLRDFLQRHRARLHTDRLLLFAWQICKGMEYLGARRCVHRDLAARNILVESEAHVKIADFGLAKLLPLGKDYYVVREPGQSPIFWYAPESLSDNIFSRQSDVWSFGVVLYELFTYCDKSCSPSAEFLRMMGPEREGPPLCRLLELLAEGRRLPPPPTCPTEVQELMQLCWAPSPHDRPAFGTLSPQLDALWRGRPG
Put plainly: JAKs cell activity test: JAK3_pSTAT5 in IL-2-induced CTLL-2 cells. Format: cell-based. Conditions: pSTAT5, IL-2-induced CTLL-2 cells. The procedure: THP1 cells were collected by centrifugation, resuspended with 1×HBSS, counted and diluted to a certain cell density. They were inoculated in a 384-well plate and cultured in a saturated humidity incubator with 37 °C and 5% CO2. The compound (DMSO final volume of 0.3%) was added to THP1 cells (10 doses in duplicates) and cultured in a saturated humidity incubator with 37 °C and 5% CO2. hIL-4 was added to stimulate cells and cultured in a saturated humidity incubator with 37 °C and 5% CO2. The lysis solution was added and incubated at room temperature. According to the instructions of AlphaLISA SureFire Ultra p-STAT6 detection kit, the lysis solution was transferred to pSTAT6 detection system, and the ALPHA signal was read by PE Envision microplate reader. The inhibition rate Inh%=((DMSO-sample)/(DMSO-background))×100 was calculated. IC50 was obtained by fitting with GraphPad Prism non-linear regression equation, and y=Bottom+(Top-Bottom)/(1+10^((LogIC50-x)×hillslope)), where x was the concentration of the compound and y was the inhibition rate.
JAK2_pSTAT5 was tesed in IL-3-induced BAF3 cells according to the above steps, and JAK3_pSTAT5 was tested in IL-2-induced CTLL-2 cells (without serum stimulation) according to the above steps.

In the next experiment the target is TYK2 (Homo sapiens, UniProt P29597). Put plainly: experiment of inhibiting kinase activity, TYK2. Format: biochemical. Conditions: read-out: inhibition rate TYK2; for inhibition at 0.01 µM: at 10 nM; for inhibition at 0.1 µM: at 100 nM. The procedure:
The inhibition rates of tested compounds on JAK1, JAK2, JAK3, TYK2, CDK7, CDK9, EGFR (T790M) and LRRK2 kinases were measured. The test concentrations of the compounds were 10 nM and 100 nM, and the detection was performed by replicate wells. Alternatively, compounds were 3-fold serial diluted from 10 µM for 10 concentrations in replicate wells.

Another experiment deals with CDK7 (Homo sapiens, UniProt P50613). Put plainly: experiment of inhibiting kinase activity (Caliper mobility shift assay), CDK7. The settings on record: read-out: inhibition rate CDK7; for inhibition at 0.1 µM: at 100 nM. The experiment is classed as biochemical. An outline of the steps:
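Mobility-shift readout of substrate conversion; % inhibition normalized to uninhibited-enzyme wells (0%) and buffer-only background wells. Dosing: single points at 10 and 100 nM, or 3-fold series from 10 µM (10 conc.), replicates. Kinase + compound 10 min RT, then ATP/substrate.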

Each structure is given as a SMILES string.

Sequence of CDK7 (P50613 whole entry, species assumed): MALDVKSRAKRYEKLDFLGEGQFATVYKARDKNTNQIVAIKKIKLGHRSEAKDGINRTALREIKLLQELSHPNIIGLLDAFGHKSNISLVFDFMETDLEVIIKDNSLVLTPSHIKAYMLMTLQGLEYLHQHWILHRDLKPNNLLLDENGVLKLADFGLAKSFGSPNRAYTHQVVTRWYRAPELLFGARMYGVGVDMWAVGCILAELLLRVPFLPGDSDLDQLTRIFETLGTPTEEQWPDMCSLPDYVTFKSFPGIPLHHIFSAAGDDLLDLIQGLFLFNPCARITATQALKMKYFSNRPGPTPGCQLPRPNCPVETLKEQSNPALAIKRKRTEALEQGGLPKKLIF
Sequence of CDK7 (P51946 whole entry partner, species assumed): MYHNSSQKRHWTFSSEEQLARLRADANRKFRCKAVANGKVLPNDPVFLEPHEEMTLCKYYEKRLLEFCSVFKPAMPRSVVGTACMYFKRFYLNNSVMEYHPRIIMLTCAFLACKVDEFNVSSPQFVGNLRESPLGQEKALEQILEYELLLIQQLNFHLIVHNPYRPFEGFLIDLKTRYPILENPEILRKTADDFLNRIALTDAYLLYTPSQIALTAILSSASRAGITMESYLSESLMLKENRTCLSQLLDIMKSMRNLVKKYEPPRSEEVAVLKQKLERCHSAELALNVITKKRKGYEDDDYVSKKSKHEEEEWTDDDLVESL
Sequence of CDK7 (P51948 whole entry partner, species assumed): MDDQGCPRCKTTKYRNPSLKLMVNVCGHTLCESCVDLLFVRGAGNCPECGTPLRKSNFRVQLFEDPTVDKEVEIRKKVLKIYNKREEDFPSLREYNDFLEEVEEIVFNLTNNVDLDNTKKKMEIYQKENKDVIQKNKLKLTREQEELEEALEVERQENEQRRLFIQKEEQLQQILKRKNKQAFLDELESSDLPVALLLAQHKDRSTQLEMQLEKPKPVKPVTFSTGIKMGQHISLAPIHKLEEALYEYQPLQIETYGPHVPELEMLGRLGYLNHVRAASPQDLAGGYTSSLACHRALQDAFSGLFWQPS
Sequence of TYK2 (P29597 whole entry): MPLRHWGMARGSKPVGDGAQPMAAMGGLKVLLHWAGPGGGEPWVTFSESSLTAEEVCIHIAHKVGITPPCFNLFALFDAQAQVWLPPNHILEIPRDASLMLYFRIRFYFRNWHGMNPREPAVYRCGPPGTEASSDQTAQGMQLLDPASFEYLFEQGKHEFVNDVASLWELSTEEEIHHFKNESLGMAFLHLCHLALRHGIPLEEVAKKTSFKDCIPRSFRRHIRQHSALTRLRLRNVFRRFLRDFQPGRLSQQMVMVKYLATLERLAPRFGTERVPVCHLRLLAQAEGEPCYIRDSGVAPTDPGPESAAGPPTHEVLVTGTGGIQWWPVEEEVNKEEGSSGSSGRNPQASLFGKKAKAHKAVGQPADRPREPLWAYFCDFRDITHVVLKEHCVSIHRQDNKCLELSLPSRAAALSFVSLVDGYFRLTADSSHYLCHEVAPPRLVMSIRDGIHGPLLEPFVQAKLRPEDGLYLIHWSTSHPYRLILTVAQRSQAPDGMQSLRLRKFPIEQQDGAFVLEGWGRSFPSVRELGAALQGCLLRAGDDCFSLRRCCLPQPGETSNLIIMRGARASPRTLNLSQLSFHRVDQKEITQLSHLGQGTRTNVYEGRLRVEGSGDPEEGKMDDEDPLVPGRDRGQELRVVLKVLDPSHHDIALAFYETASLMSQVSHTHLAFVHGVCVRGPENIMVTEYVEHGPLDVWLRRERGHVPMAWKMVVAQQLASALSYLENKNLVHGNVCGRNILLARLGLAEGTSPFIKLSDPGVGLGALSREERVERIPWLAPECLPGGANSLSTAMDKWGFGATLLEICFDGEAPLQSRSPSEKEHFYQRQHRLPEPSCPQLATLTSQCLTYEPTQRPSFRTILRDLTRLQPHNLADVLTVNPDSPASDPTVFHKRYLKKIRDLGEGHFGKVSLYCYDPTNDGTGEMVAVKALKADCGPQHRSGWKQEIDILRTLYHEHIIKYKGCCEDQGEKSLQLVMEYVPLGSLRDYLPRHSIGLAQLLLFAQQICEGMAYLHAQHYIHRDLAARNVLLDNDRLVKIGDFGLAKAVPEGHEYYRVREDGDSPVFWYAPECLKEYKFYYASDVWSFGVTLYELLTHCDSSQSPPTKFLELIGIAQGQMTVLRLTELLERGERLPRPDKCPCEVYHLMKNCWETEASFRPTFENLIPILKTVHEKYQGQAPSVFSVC

Regarding `CCS(=O)(=O)N1CC(CC#N)(n2cc(-c3nc(Nc4ccc5c(c4)OCCN(C)CCO5)nc4[nH]ccc34)cn2)C1` [Example 28, 2-(1-(ethylsulfonyl)-3-(4-(2-((4-methyl-3,4,5,6-tetrahydro-2H-benzo[b][1,4,7]dioxazolin-9-yl)amino)-7H-pyrrolo[2,3-d]pytimidin-4-yl)-1H-pyrazol-1-yl)azetidin-3-yl) acetonitrile], the EC50 on JAK3 was less than 50 nM.

Consider `CN1CCOCCOc2cc(Nc3ncc(F)c(-c4ccc(C(=O)NCC#N)cc4)n3)ccc2OCC1` [Example 16, N-(cyanomethyl)-4-(5-fluoro-2-((7-methyl-2,3,6,7,8,9-hexahydro-5H-benzo[b][1,4,7]trioxa[10]azacyclododecan-13-yl)amino)pyrimidin-4-yl)benzamide], for which the inhibition at 0.01 µM lay in the range of 40 to 79% on TYK2 and 25 to 39% at CDK7 (at 10 nM). The inhibition at 0.1 µM at TYK2 and on CDK7 was greater than 80% in each case.

Consider `CN1CCOCCOc2cc(Nc3nc(-c4cnn(C(CC#N)C5CCCC5)c4)c4cc[nH]c4n3)ccc2OCC1` (stereo not drawn) [Example 26, 3-cyclopentyl-3-(4-(2-((7-methyl-2,3,6,7,8,9-hexahydro-5H-benzo[b][1,4,7]trioxa[10]azacyclododecan-13-yl)amino)-7H-pyrrolo[2,3-d]pytimidin-4-yl)-1H-pyrazol-1-yl)propionitrile], for which, at TYK2, the inhibition at 0.01 µM was greater than 80% and the inhibition at 0.1 µM was greater than 80%. For the same compound, the inhibition at 0.1 µM on CDK7 was 40 to 79%. At JAK3, this compound showed an EC50 of 500 to 5000 nM.
